{"source": "patent US20110306597A1", "about": "“Nicotinamide Derivatives” (priority 2008, published 2011)", "data": [{"molecular_target": "human recombinant H-PGDS (Homo sapiens, UniProt O60760)", "sequence (O60760 whole entry)": "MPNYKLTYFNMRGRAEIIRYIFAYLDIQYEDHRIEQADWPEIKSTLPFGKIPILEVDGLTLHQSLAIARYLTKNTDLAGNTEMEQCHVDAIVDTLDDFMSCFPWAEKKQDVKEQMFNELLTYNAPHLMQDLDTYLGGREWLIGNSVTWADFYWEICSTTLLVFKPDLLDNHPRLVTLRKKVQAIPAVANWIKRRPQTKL", "assay": "Fluorescence Intensity h-PGDS TBA Enzyme Assay", "assay_type": "biochemical", "conditions": "1:175,000 human recombinant H-PGDS, highest inhibitor concentration typically 1 μM", "procedure": "Fluorescence Intensity h-PGDSTBA Enzyme Assay\nProstaglandin D Synthase (PGDS) converts the substrate prostaglandin H2 (PGH2) to prostaglandin D2. The depletion of PGH2 was measured via an Fe(II) reduction of the remaining PGH2 to malondialdehyde (MDA) and 12-HHT. The enzyme assay is based on the quantitative formation of a fluorescent complex from the non-fluorescent compounds MDA and 2-thiobarbituric acid (TBA), substantially as described in U.S. patent application publication US-2004/152148 by Lombardt.\nThe enzyme assay (31 μls) contained 100 mM Tris base pH 8.0, 100 μM MgCl2, 0.1 mg/ml IgG Rabbit serum, 5.0 μM PGH2 (Cayman; ethanol solution, #17020), 2.5 mM L-Glutathione (Sigma; reduced form #G4251), 1:175,000 human recombinant H-PGDS (from 1 mg/ml), 0.5% DMSO and inhibitor (varying concentration). Three μls of diluted inhibitor (dissolved in DMSO) was plated into a 384-well assay plate followed by a 25 μl addition of an enzyme solution containing h-PGDS, Tris, MgCl2, IgG and L-Glutathione. After preincubation of inhibitor and enzyme solution for 10 minutes at room temperature, the reaction was initiated with a 3 μl addition of substrate solution in 10 mM HCl. The reaction was terminated after 42 second by the addition (3 μl) of stop buffer containing FeCl2 and citric acid. After addition of 45.5 μls of TBA plates were heated for one hour in a 70 C oven. Plates were cooled at room temperature overnight and read on a plate reader the next day with excitation @ 530 nm and emission @ 565 nm.\nIC50's of inhibitors were calculated with a 4-parameter fit using 11 inhibitor concentrations in duplicate with 3-fold serial dilutions. Controls on each plate included no inhibitor (zero % effect) and an inhibitor 10-fold in excess of its' IC50 (100% effect). The highest inhibitor concentration tested was typically 1 μM.", "units": {"IC50": "nM"}, "values": [{"smiles": "CCOCCCNC(=O)c1ccc(-c2cccc(F)c2)nc1", "note": "[Example 38, N-(3-Ethoxypropyl)-6-(3-fluorophenyl)nicotinamide]", "IC50": 14.8}, {"smiles": "O=C(NCCCN1CCOCC1)c1ccc(-c2cccc(F)c2)nc1", "note": "[Example 39, 6-(3-Fluorophenyl)-N-(3-morpholin-4-ylpropyl)nicotinamide]", "IC50": 42.8}, {"smiles": "O=C(NCC1CCCOC1)c1ccc(-c2cccc(F)c2)nc1", "note": "(stereo not drawn) [Example 40, 6-(3-Fluorophenyl)-N-(tetrahydro-2H-pyran-3-ylmethyl)nicotinamide]", "IC50": 7.14}, {"smiles": "O=C(NCCN1CCCOC1=O)c1ccc(-c2cccc(F)c2)nc1", "note": "[Example 41, 6-(3-Fluorophenyl)-N-[2-(2-oxo-1,3-oxazinan-3-yl)ethyl]nicotinamide]", "IC50": 18.2}, {"smiles": "O=C(NCCC1CCC(=O)N1CCN1CCOCC1)c1ccc(-c2cccc(F)c2)nc1", "note": "(stereo not drawn) [Example 42, 6-(3-Fluorophenyl)-N-{2-[1-(2-morpholin-4-ylethyl)-5-oxopyrrolidin-2-yl]ethyl}nicotinamide]", "IC50": 12.6}, {"smiles": "COc1ccc(OCC(O)CNC(=O)c2ccc(-c3cccc(F)c3)nc2)cc1", "note": "(stereo not drawn) [Example 43, 6-(3-Fluorophenyl)-N-[2-hydroxy-3-(4-methoxyphenoxy)propyl] nicotinamide]", "IC50": 6.64}, {"smiles": "COC(=O)CCCNC(=O)c1ccc(-c2cccc(F)c2)nc1", "note": "[Example 44, Methyl 4-({[6-(3-fluorophenyl)pyridin-3-yl]carbonyl}amino)butanoate]", "IC50": 13.2}, {"smiles": "CCn1cc(-c2nnc(CCNC(=O)c3ccc(-c4cccc(F)c4)nc3)o2)cn1", "note": "[Example 45, N-{2-[5-(1-Ethyl-1H-pyrazol-4-yl)-1,3,4-oxadiazol-2-yl]ethyl}-6-(3-fluorophenyl)nicotinamide]", "IC50": 30.7}, {"smiles": "COCCN1C(=O)CCC1CCNC(=O)c1ccc(-c2cccc(F)c2)nc1", "note": "(stereo not drawn) [Example 46, 6-(3-Fluorophenyl)-N-{2-[1-(2-methoxyethyl)-5-oxopyrrolidin-2-yl]ethyl}nicotinamide]", "IC50": 17.3}, {"smiles": "O=C(NCCN1CCCC(O)C1)c1ccc(-c2cccc(F)c2)nc1", "note": "(stereo not drawn) [Example 47, 6-(3-Fluorophenyl)-N-[2-(3-hydroxypiperidin-1-yl)ethyl]nicotinamide]", "IC50": 21.7}, {"smiles": "COc1cccn(CCNC(=O)c2ccc(-c3cccc(F)c3)nc2)c1=O", "note": "[Example 48, 6-(3-Fluorophenyl)-N-[2-(3-methoxy-2-oxopyridin-1(2H)-yl)ethyl]nicotinamide]", "IC50": 10.7}, {"smiles": "COc1cccc(OCC(O)CNC(=O)c2ccc(-c3cccc(F)c3)nc2)c1", "note": "(stereo not drawn) [Example 49, 6-(3-Fluorophenyl)-N-[2-hydroxy-3-(3-methoxyphenoxy)propyl] nicotinamide]", "IC50": 10.8}, {"smiles": "COc1ccc(OC)c(C(O)CNC(=O)c2ccc(-c3cccc(F)c3)nc2)c1", "note": "(stereo not drawn) [Example 50, N-[2-(2,5-Dimethoxyphenyl)-2-hydroxyethyl]-6-(3-fluorophenyl)nicotinamide]", "IC50": 8.14}, {"smiles": "O=C(NCC1CC2(CCN(Cc3cc[nH]n3)CC2)CO1)c1ccc(-c2cccc(F)c2)nc1", "note": "(stereo not drawn) [Example 51, 6-(3-Fluorophenyl)-N-{[8-(1H-pyrazol-3-ylmethyl)-2-oxa-8-azaspiro[4.5]dec-3-yl]methyl}nicotinamide]", "IC50": 25.4}, {"smiles": "CN1CCC2(CC1)COC(CNC(=O)c1ccc(-c3cccc(F)c3)nc1)C2", "note": "(stereo not drawn) [Example 52, 6-(3-Fluorophenyl)-N-[(8-methyl-2-oxa-8-azaspiro[4.5]dec-3-yl)methyl]nicotinamide]", "IC50": 77.6}, {"smiles": "O=C(NCC1CC2(CCN(Cc3ccccn3)CC2)CO1)c1ccc(-c2cccc(F)c2)nc1", "note": "(stereo not drawn) [Example 53, 6-(3-Fluorophenyl)-N-{[8-(pyridin-2-ylmethyl)-2-oxa-8-azaspiro[4.5]dec-3-yl]methyl}nicotinamide]", "IC50": 19.2}, {"smiles": "O=C(NCC1CC2(CCN(c3cnccn3)CC2)CO1)c1ccc(-c2cccc(F)c2)nc1", "note": "(stereo not drawn) [Example 54, 6-(3-Fluorophenyl)-N-[(8-pyrazin-2-yl-2-oxa-8-azaspiro[4.5]dec-3-yl)methyl]nicotinamide]", "IC50": 13.5}, {"smiles": "COc1ccc(C(Cc2cc(C)no2)NC(=O)c2ccc(-c3cccc(F)c3)nc2)cc1OC", "note": "(stereo not drawn) [Example 55, N-[1-(3,4-Dimethoxyphenyl)-2-(3-methylisoxazol-5-yl)ethyl]-6-(3-fluorophenyl)nicotinamide]", "IC50": 11.1}, {"smiles": "Cc1cnc(CN2C(=O)CCC2CCNC(=O)c2ccc(-c3cccc(F)c3)nc2)cn1", "note": "(stereo not drawn) [Example 56, 6-(3-Fluorophenyl)-N-(2-{1-[(5-methylpyrazin-2-yl)methyl]-5-oxopyrrolidin-2-yl}ethyl)nicotinamide]", "IC50": 19.8}, {"smiles": "O=C(NCc1nnc(Cc2ccccc2)o1)c1ccc(-c2cccc(F)c2)nc1", "note": "[Example 57, N-[(5-Benzyl-1,3,4-oxadiazol-2-yl)methyl]-6-(3-fluorophenyl)nicotinamide]", "IC50": 32.8}, {"smiles": "O=C(NCCC1CCC(=O)N1Cc1ccccc1)c1ccc(-c2cccc(F)c2)nc1", "note": "(stereo not drawn) [Example 58, N-[2-(1-Benzyl-5-oxopyrrolidin-2-yl)ethyl]-6-(3-fluorophenyl)nicotinamide]", "IC50": 9.46}, {"smiles": "O=C(NC(c1ccc(F)c(F)c1)c1nn[nH]n1)c1ccc(-c2cccc(F)c2)nc1", "note": "(stereo not drawn) [Example 59, N-[(3,4-Difluorophenyl)(2H-tetrazol-5-yl)methyl]-6-(3-fluorophenyl)nicotinamide]", "IC50": 10.6}, {"smiles": "CCC(NC(=O)c1ccc(-c2cccc(F)c2)nc1)c1nn[nH]n1", "note": "(stereo not drawn) [Example 60, 6-(3-Fluorophenyl)-N-[1-(2H-tetrazol-5-yl)propyl]nicotinamide]", "IC50": 38.9}, {"smiles": "CCc1csc(CNC(=O)c2ccc(-c3cccc(F)c3)nc2)n1", "note": "[Example 61, N-[(4-Ethyl-1,3-thiazol-2-yl)methyl]-6-(3-fluorophenyl)nicotinamide]", "IC50": 5.48}, {"smiles": "O=C(NC(CCc1ccccc1)c1nn[nH]n1)c1ccc(-c2cccc(F)c2)nc1", "note": "(stereo not drawn) [Example 62, 6-(3-Fluorophenyl)-N-[3-phenyl-1-(2H-tetrazol-5-yl)propyl]nicotinamide]", "IC50": 17.2}, {"smiles": "O=C(NC1CCCOC1)c1ccc(-c2cccc(F)c2)nc1", "note": "(stereo not drawn) [Example 63, 6-(3-Fluorophenyl)-N-(tetrahydro-2H-pyran-3-yl)nicotinamide]", "IC50": 5.32}, {"smiles": "O=C(NCCNc1ncccn1)c1ccc(-c2cccc(F)c2)nc1", "note": "[Example 64, 6-(3-Fluorophenyl)-N-[2-(pyrimidin-2-ylamino)ethyl]nicotinamide]", "IC50": 12.9}, {"smiles": "CC[C@H](CC#N)NC(=O)c1ccc(-c2cccc(F)c2)nc1", "note": "[Example 65, N-[(1R)-1-(Cyanomethyl)propyl]-6-(3-fluorophenyl)nicotinamide]", "IC50": 60.3}, {"smiles": "COC(=O)CC[C@@H](NC(=O)c1ccc(-c2cccc(F)c2)nc1)C(=O)OC", "note": "[Example 66, Dimethyl N-{[6-(3-fluorophenyl)pyridin-3-yl]carbonyl}-D-glutamate]", "IC50": 95.2}, {"smiles": "O=C(NCC1CN(Cc2ccccn2)C(=O)CO1)c1ccc(-c2cccc(F)c2)nc1", "note": "(stereo not drawn) [Example 67, 6-(3-Fluorophenyl)-N-{[5-oxo-4-(pyridin-2-ylmethyl)morpholin-2-yl]methyl}nicotinamide]", "IC50": 31.9}, {"smiles": "CN(C)[C@@H]1COC[C@H]1NC(=O)c1ccc(-c2cccc(F)c2)nc1", "note": "[Example 68, N-[(3S,4S)-4-(Dimethylamino)tetrahydro-furan-3-yl]-6-(3-fluorophenyl)nicotinamide]", "IC50": 75.8}, {"smiles": "Cc1nc(CNC(=O)c2ccc(-c3cccc(F)c3)nc2)cs1", "note": "[Example 69, 6-(3-Fluorophenyl)-N-[(2-methyl-1,3-thiazol-4-yl)methyl]nicotinamide]", "IC50": 23.9}, {"smiles": "CCCCN1CC(CNC(=O)c2ccc(-c3cccc(F)c3)nc2)OCC1=O", "note": "(stereo not drawn) [Example 70, N-[(4-Butyl-5-oxomorpholin-2-yl)methyl]-6-(3-fluorophenyl)nicotinamide]", "IC50": 34.2}, {"smiles": "Cc1cnc(CN2CC(CNC(=O)c3ccc(-c4cccc(F)c4)nc3)OCC2=O)cn1", "note": "(stereo not drawn) [Example 71, 6-(3-Fluorophenyl)-N-({4-[(5-methylpyrazin-2-yl)methyl]-5-oxomorpholin-2-yl}methyl)nicotinamide]", "IC50": 61.8}, {"smiles": "O=C(NC[C@@H]1CCCN2CCCC[C@H]12)c1ccc(-c2cccc(F)c2)nc1", "note": "[Example 73, 6-(3-Fluorophenyl)-N-[(1S,9aR)-octahydro-2H-quinolizin-1-ylmethyl]nicotinamide]", "IC50": 92.9}, {"smiles": "CCN1CCC[C@@H]1CNC(=O)c1ccc(-c2cccc(F)c2)nc1", "note": "[Example 74, N-{[(2R)-1-Ethylpyrrolidin-2-yl]methyl}-6-(3-fluorophenyl) nicotinamide]", "IC50": 42.3}, {"smiles": "O=C(NCCC1CCC(=O)N1CCN1CCCC1)c1ccc(-c2cccc(F)c2)nc1", "note": "(stereo not drawn) [Example 75, 6-(3-Fluorophenyl)-N-{2-[5-oxo-1-(2-pyrrolidin-1-ylethyl)pyrrolidin-2-yl]ethyl}nicotinamide]", "IC50": 48}, {"smiles": "O=C(NCCOCc1nc2ccccc2[nH]1)c1ccc(-c2cccc(F)c2)nc1", "note": "[Example 76, N-[2-(1H-Benzimidazol-2-ylmethoxy)ethyl]-6-(3-fluorophenyl)nicotinamide]", "IC50": 34.7}, {"smiles": "CN(C)CCCCCNC(=O)c1ccc(-c2cccc(F)c2)nc1", "note": "[Example 77, N-[5-(Dimethylamino)pentyl]-6-(3-fluorophenyl)nicotinamide]", "IC50": 90.3}]}]}
